This is an account of results in article PMC4604475 (Scientific Reports, 2015).

Data set [1] is described as follows: Hydrolysis kinetics in aqueous PBS 0.1 M, pH 6.8, 37 °C (intestinal conditions). In kind it is physicochemical. The conditions noted are these: for half-life at 5 μM: 0.1 M PBS buffer, 5 μM compound; for 10^2 * kII, pseudo first-order rate constant, disubstituted to monosubstituted / 10^2 * kIII, pseudo first-order rate constant, trisubstituted to disubstituted: value ± standard error of fit. The source says: (§1) There are two possible isomeric disubstituted intermediates and, likewise, two monosubstituted intermediates. By HPLC-UV and HPLC-MS analyses in most cases we were able to detect and separate all of them. However, to simplify the kinetic analysis of the data we considered each pair of isomeric intermediates, resulting from the first and second hydrolysis steps, as a single species, i.e. the two disubstituted and the two monosubstituted intermediates were handled as species II and I, respectively (Fig. 3). Fitting of the experimental data was then performed considering consecutive pseudo first order reactions and using a set of equations analogous to those described by Kozerski et al.[55]
The stability of all new compounds was tested in aqueous media imitating gastric (0.1 N HCl, NormaFix) and intestinal (0.1 M PBS buffer, pH 6.8) conditions. A 5 μM solution of the compound was prepared from a 5 mM stock solution in DMSO, and incubated at 37 °C for 24 hours; samples withdrawn at different times were analysed by HPLC-UV. Hydrolysis products were identified by HPLC/ESI-MS analysis of selected samples. Non-linear curve fitting was performed using Origin 8.0 data analysis software, using the equations described in[55][61].

A short description of data set [2]: Stability (hydrolysis kinetics) in rat whole blood. Format: in vitro ADME. The conditions noted are these: 37 °C; for kIII, pseudo first-order rate constant, trisubstituted to disubstituted: value ± standard error of fit; for half-life at 5 μM: whole blood (heparinised), 5 μM compound.
Excerpt: as §1
Rats were anesthetised and blood was withdrawn from the jugular vein, and transferred into tubes containing heparin. Blood samples (1 mL) were spiked with 5 μM compound (dilution from a 5 mM stock solution in DMSO), and incubated at 37 °C for 4 hours (the maximum period allowed by blood stability). Aliquots were taken after 10 min, 30 min, 1 h, 2 h and 4 h and treated as described below (blood sample treatment and analysis). Cleared blood samples were finally subjected to HPLC-UV analysis.
(§2) Before starting the treatment, 4,4′-dihydroxybiphenyl was added as internal standard to a carefully measured blood volume (25 μM final concentration). 0.1 vol of 0.6 M TEA (pH 8.0) and 4 vol of MeOH were then added to the blood samples, which were then sonicated (2 min) and centrifuged (12,000 g, 7 min, 4 °C). The supernatant was finally collected and stored at −20 °C. Before analysis, MeOH was evaporated off at room temperature using a Univapo 150H (UniEquip) vacuum concentrator centrifuge, and up to 40 μL of ACN were added to precipitate residual proteins. After centrifugation (12,000 g, 5 min, 4 °C), cleared samples were directly subjected to HPLC-UV analysis. Metabolites and hydrolysis products were identified by comparison of chromatographic retention time with true samples or by HPLC/ESI-MS analysis.

Data set [3] in a line: Blood pharmacokinetics after oral (intragastric) administration to rats. Format: in vivo. The conditions noted are these: rat, oral 88 μmol/kg. Here is the method:
Derivatives 2–5 were then tested for their in vivo absorption and metabolism by performing pharmacokinetic studies after oral administration to rats. Each compound was administered as a single intragastric bolus, in an equimolar dose/kg body weight (88 μmol/kg). Blood samples were taken at different time points over a 24 h period, treated and analyzed as described in the Materials and Methods section. Each experiment was replicated at least 3 times.
as §2
Internal standard recovery from the treatment used to extract resveratrol-AA derivatives was 91.8 ± 10.7%. The recovery of 3, expressed as ratio to the recovery of internal standard, was 0.633 ± 0.088. […] Knowledge/assumption of these ratios allowed us to determine the unknown amount of analyte in a blood sample by measuring the recovery of internal standard.
Since sample treatment includes an evaporation/concentration step, LOD and LOQ were determined relatively to the analytical part of the method (HPLC/UV analysis).
Derivatives 2–5 were administered to overnight-fasted male Wistar rats from the facility of the Department of Biomedical Sciences, University of Padova, as a single intragastric dose (88 μmol/Kg, dissolved in 250 μl DMSO). Blood samples were obtained by the tail bleeding technique: before drug administration, rats were anesthetised with isoflurane and the tip of the tail was cut off; blood samples (80–100 μL each) were then taken from the tail tip at different time points after drug administration. Blood was collected in heparinised tubes, kept in ice and treated as described above within 10 min.

For data set [4] the following is noted: oral administration of an equimolar amount of resveratrol itself; cited from earlier work.

Some results are limits rather than exact numbers.

On to `CC(C)CC(NC(=O)Oc1ccc(/C=C/c2cc(OC(=O)NC(CC(C)C)C(=O)O)cc(OC(=O)NC(CC(C)C)C(=O)O)c2)cc1)C(=O)O` (centres unmarked) [Derivative 2, (E)-2,2′-((((5-(4-(((1-carboxy-3-methylbutyl)carbamoyl)oxy)styryl)-1,3-phenylene)bis(oxy))bis(carbonyl))bis(azanediyl))bis(4-methylpentanoic acid)], for which, in data set [1], the half-life – broadly, the time needed for the level to fall by half in the phase considered – at 5 μM was > 24 h; the “10^2 * kII, pseudo first-order rate constant, disubstituted to monosubstituted” value (shortened to “10^2 * kII … to monosubstituted”) turned out to be 0.9 ± 0.2 h^−1; the “10^2 * kIII, pseudo first-order rate constant, trisubstituted to disubstituted” value (shortened to “10^2 * kIII”) came to 1.98 ± 0.03 h^−1. In data set [2], the “kIII, pseudo first-order rate constant, trisubstituted to disubstituted” value amounted to 0.57 ± 0.06 h⁻¹ and the half-life at 5 μM is 1 h.
Regarding `CCC(C)C(NC(=O)Oc1ccc(/C=C/c2cc(OC(=O)NC(C(=O)O)C(C)CC)cc(OC(=O)NC(C(=O)O)C(C)CC)c2)cc1)C(=O)O` (centres unmarked) [Derivative 3, (E)-2,2′-((((5-(4-(((1-carboxy-2-methylbutyl)carbamoyl)oxy)styryl)-1,3-phenylene)bis(oxy))bis(carbonyl))bis(azanediyl))bis(3-methylpentanoic acid)], in data set [1], the half-life at 5 μM is > 24 h; the “10^2 * kII … to monosubstituted” value is listed as 0.4 ± 0.4 h^−1; the “10^2 * kIII” value amounted to 2.21 ± 0.02 h^−1. For the same compound, in data set [2], the “kIII, pseudo first-order rate constant, trisubstituted to disubstituted” value amounted to 0.63 ± 0.04 h⁻¹ and the half-life at 5 μM was 1 h. For the same compound, in data set [3], the “level of disubstituted hydrolysis products (II) in blood” value is recorded as “about as high as that of their precursor” and the “sulfated or glucuronidated species in the bloodstream” value is “neither sulfated nor glucuronidated species appeared in the bloodstream”. Further, the “concentration of prodrug in blood” value in data set [3] (about one hour after administration, remained around this level for several hours) is listed as “higher than 0.5 μM”.
As for `CC(O)C(NC(=O)Oc1ccc(/C=C/c2cc(OC(=O)NC(C(=O)O)C(C)O)cc(OC(=O)NC(C(=O)O)C(C)O)c2)cc1)C(=O)O` (centres unmarked) [Derivative 4, (E)-2,2′-((((5-(4-(((1-carboxy-2-hydroxypropyl)carbamoyl)oxy)styryl)-1,3-phenylene)bis(oxy))bis(carbonyl))bis(azanediyl))bis(3-hydroxybutanoic acid)], in data set [1], the half-life at 5 μM was 15 h; the “10^2 * kII … to monosubstituted” value is reported as 1.4 ± 0.1 h^−1; the “10^2 * kIII” value is reported as 5.30 ± 0.08 h^−1. In addition, in data set [2], the “kIII, pseudo first-order rate constant, trisubstituted to disubstituted” value came out at 3.9 ± 0.2 h⁻¹ and the half-life at 5 μM was 0.17 h. In addition, the “appearance in blood of resveratrol, products of partial hydrolysis (II and I) or any metabolites” value in data set [3] is listed as “did not result in the appearance in blood samples of detectable amounts”.
Consider `O=C(NC(Cc1ccccc1)C(=O)O)Oc1ccc(/C=C/c2cc(OC(=O)NC(Cc3ccccc3)C(=O)O)cc(OC(=O)NC(Cc3ccccc3)C(=O)O)c2)cc1` (centres unmarked) [Derivative 5, (E)-2,2′-((((5-(4-(((1-carboxy-2-phenylethyl)carbamoyl)oxy)styryl)-1,3-phenylene)bis(oxy))bis(carbonyl))bis(azanediyl))bis(3-phenylpropanoic acid)], for which, in data set [1], the half-life at 5 μM is 17 h; the “10^2 * kII … to monosubstituted” value worked out at 1.36 ± 0.04 h^−1; the “10^2 * kIII” value came out at 4.25 ± 0.02 h^−1. In addition, in data set [2], the “kIII, pseudo first-order rate constant, trisubstituted to disubstituted” value came to 1.86 ± 0.06 h⁻¹ and the half-life at 5 μM was 0.3 h. Further, in data set [3], the “appearance in blood of resveratrol, products of partial hydrolysis (II and I) or any metabolites” value is reported as “did not result in the appearance in blood samples of detectable amounts”.
As for `Oc1ccc(/C=C/c2cc(O)cc(O)c2)cc1` [resveratrol, 3,5, 4′-trihydroxy-trans-stilbene], the “time of peak blood concentration of resveratrol” value in data set [4] is on record as “about 10 minutes”.
